Experimental data as given in US9034391B2, “Compositions with enhanced bioavailability and fast acting inhibitor or gastric acid secretion” (YALE UNIVERSITY, priority 2006, dated 2015).
Several values for one entry are separate records, joined by “and”; a condition that tells them apart may be missing. Equal entries are not always repeated. Entries after “also recorded” stand apart in the source; their conditions may differ.

Columns and labels:
[1] = molecular target: T1, H+,K+-ATPase (Rattus norvegicus, UniProt P09626); assay: Intracellular pH recovery (BCECF, NH4Cl prepulse) in isolated rat gastric glands; assay type: cell-based
T1 construct: Individual glands were isolated using a hand-dissection technique as described previously; from tissue; host or cells: hand-dissected rat gastric glands (corpus and antrum), parietal cells
T1 sequence (P09626 whole entry): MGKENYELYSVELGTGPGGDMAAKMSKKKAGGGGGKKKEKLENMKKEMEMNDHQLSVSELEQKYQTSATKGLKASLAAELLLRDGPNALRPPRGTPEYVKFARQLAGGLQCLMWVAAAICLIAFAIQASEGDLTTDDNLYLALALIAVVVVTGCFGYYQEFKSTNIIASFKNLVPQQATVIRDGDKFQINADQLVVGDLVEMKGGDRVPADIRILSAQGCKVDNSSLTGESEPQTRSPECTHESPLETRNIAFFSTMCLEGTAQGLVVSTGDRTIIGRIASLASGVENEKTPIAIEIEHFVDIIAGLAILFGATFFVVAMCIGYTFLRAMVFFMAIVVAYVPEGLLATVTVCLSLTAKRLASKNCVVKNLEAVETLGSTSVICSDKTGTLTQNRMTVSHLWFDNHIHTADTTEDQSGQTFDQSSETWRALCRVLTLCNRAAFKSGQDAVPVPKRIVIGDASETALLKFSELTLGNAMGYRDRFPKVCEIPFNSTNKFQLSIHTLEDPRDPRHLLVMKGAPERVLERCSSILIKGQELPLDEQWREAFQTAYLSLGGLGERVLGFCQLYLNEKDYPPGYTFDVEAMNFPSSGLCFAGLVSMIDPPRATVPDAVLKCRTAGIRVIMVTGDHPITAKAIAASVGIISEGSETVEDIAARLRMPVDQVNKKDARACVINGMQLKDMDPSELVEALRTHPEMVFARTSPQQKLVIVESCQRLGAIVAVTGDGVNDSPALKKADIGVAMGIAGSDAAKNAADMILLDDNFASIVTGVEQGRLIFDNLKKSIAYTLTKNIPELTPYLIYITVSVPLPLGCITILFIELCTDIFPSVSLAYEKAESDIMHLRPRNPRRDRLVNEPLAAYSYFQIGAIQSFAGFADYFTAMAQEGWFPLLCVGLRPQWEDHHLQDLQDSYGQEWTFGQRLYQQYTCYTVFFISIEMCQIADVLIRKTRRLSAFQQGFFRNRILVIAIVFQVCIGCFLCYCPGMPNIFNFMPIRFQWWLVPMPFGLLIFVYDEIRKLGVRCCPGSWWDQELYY
T1 sequence (P18598 whole entry partner): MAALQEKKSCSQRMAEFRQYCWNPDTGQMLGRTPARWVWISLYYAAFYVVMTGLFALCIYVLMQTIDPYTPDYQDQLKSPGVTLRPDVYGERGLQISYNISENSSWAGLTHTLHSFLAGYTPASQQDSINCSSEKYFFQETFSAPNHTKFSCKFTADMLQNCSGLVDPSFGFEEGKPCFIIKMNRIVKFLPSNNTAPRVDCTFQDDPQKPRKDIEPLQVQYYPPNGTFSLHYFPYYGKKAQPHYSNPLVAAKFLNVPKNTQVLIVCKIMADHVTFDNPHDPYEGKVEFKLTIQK
From the text: Following removal of the stomach, the stomach was opened longitudinally and the corpus and antrum isolated and sliced into 0.5 cm square sections, and washed with cold Ringer solution to remove residual food particles. The tissues were transferred to the stage of a dissecting microscope. Individual glands were isolated using a hand-dissection technique as described previously^36. Following isolation, individual isolated glands were allowed to adhere to cover slips that had been pre-coated with Cell-Tak (Collaborative Research, Bedford, Mass.) and were transferred to the stage of an inverted microscope.
Isolated gastric glands were incubated in a HEPES-buffered Ringer's solution containing either 10 μmol of the pH-sensitive dye BCECF-AM (2′,7′)-bis-(2-carboxyethyl)-5-(and -6)-carboxy-fluorescin, aceto-methyl ester (Molecular Probes, Eugene, Oreg.) for 10 minutes as described previously^37-39. […] A minimum of 8 cells or regions was selected per gland.
Proton extrusion by individual parietal cells was monitored by observing recovery of pHi after acid loading the cells with Na^+ free HEPES solution containing 20 mM NH4C1.
The recovery rates are expressed as the ΔpH/min, and were calculated over the pH range of 6.5-6.8.

[2] = test system: gastric acid secretion in freshly isolated rat whole stomach; assay: Whole stomach pH measurements, ex vivo rat whole stomach preparation
Method: Before the experiments animals were fasted for 24 h to reduce basal acid secretion to a consistent minimum. Animals were killed with an overdose of isoflurane and an abdominal incision was made. The stomach was ligated at the duodenal and esophageal junction and excised. Then 1 ml of non buffered, isotonic saline (140 mM) was infused into the lumen of the stomach. […] The stomachs were then placed in either oxygenated HEPES-buffered Ringer solution or in the same solution containing 100 μM histamine alone or additionally 300 μM ZnCl2 (pH 7.4) and maintained at 37° C. After 1 hour the stomach contents were aspirated and the pH was recorded.

[3] = test system: histamine induced acid secretion; assay: Oral zinc supplementation in rats, histamine induced proton extrusion of isolated glands; assay type: in vivo, rat
From the text: Following dye-loading the chamber was flushed with a HEPES solution to remove all non-de-esterified dye. The perfusion chamber was mounted on the stage of an inverted microscope (Olympus IX50), which was used in the epifluorescence mode with a 40× objective. BCECF was successively excited at 440 nm and 490 nm from a monochromator light source, and the resultant fluorescent signal was monitored at 535 nm using an intensified charge-coupled device camera. Individual regions of interest were outlined and simultaneously monitored every 15 sec. during the course of the experiment. A minimum of 8 cells or regions was selected per gland.
Proton extrusion by individual parietal cells was monitored by observing recovery of pHi after acid loading the cells with Na^+ free HEPES solution containing 20 mM NH4C1. Parietal cells were subsequently superfused with Na^+ free HEPES, which abolished all Na^+/H^+ Exchanger (NHE) activity, trapping H^+ within the cytosol and initiating an immediate drop in pHi. Under these conditions, the only potential H^+ extrusion pathway is via the H^+,K^+-ATPase activation.
The intensity ratio data (490/440) were converted to pH values using the high K^+/nigericin calibration technique^40. Intracellular pH recovery rates were calculated from the same initial starting pH to eliminate the potential variation in the individual intracellular buffering power of the cells under the different experimental conditions. All data including the individual images for all wavelengths were recorded to the hard disk which allowed us to return to the individual images after the experiment for further analysis. The recovery rates are expressed as the ΔpH/min, and were calculated over the pH range of 6.5-6.8. All chemicals were obtained from Sigma and Molecular Probes. All data were summarized as means±SE and were analysed by grouping measurements at baseline values.

[4] = molecular target: H+,K+-ATPase (Homo sapiens, UniProt P20648); settings: human gastric glands
Sequence of H+,K+-ATPase (Homo sapiens, UniProt P20648) (P20648 whole entry): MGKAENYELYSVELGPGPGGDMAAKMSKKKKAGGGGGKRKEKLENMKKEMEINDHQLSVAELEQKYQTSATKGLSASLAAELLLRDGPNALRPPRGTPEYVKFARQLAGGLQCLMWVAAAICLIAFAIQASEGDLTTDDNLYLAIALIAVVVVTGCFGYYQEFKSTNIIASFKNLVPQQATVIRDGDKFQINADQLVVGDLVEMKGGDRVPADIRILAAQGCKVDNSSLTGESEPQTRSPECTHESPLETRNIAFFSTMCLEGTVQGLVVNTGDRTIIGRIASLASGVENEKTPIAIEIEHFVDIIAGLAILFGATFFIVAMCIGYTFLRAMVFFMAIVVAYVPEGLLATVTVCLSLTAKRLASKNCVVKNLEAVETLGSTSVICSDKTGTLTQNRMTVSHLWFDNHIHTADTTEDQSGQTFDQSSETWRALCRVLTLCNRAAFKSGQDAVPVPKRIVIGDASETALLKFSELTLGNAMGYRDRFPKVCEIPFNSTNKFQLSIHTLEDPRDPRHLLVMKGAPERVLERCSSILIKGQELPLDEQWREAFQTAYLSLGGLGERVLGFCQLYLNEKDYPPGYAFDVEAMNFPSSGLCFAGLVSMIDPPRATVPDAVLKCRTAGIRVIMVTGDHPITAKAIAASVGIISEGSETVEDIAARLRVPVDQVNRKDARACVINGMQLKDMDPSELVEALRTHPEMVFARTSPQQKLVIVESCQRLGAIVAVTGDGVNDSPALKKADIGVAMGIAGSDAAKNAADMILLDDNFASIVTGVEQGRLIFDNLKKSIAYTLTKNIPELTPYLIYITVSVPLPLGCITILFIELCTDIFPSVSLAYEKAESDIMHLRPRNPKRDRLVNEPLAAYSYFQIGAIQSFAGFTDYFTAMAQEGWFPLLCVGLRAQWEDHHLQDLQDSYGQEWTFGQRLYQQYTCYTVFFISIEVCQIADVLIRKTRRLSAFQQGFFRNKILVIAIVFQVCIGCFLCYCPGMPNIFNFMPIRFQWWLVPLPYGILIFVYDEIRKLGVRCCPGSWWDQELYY
Sequence of H+,K+-ATPase (Homo sapiens, UniProt P20648) (P51164 whole entry partner): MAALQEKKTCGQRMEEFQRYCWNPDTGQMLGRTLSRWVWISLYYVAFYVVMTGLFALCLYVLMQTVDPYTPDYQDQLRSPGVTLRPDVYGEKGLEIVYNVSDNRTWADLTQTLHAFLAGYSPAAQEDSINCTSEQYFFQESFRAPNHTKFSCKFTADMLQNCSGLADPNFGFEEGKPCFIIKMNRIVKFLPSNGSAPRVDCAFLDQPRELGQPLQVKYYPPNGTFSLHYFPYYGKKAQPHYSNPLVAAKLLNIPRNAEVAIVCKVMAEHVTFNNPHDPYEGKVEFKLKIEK
Method: The human tissue was transferred from the OR in a HEPES-buffered Ringer solution. The tissue was stored on ice and immediately the isolated glands were dissected as described above.
Isolated gastric glands were incubated in a HEPES-buffered Ringer's solution containing either 10 μmol of the pH-sensitive dye BCECF-AM (2′,7′)-bis-(2-carboxyethyl)-5-(and -6)-carboxy-fluorescin, aceto-methyl ester (Molecular Probes, Eugene, Oreg.) for 10 minutes as described previously^37-39. Following dye-loading the chamber was flushed with a HEPES solution to remove all non-de-esterified dye. The perfusion chamber was mounted on the stage of an inverted microscope (Olympus IX50), which was used in the epifluorescence mode with a 40× objective. BCECF was successively excited at 440 nm and 490 nm from a monochromator light source, and the resultant fluorescent signal was monitored at 535 nm using an intensified charge-coupled device camera. Individual regions of interest were outlined and simultaneously monitored every 15 sec. during the course of the experiment. A minimum of 8 cells or regions was selected per gland.
Proton extrusion by individual parietal cells was monitored by observing recovery of pHi after acid loading the cells with Na^+ free HEPES solution containing 20 mM NH4C1. Parietal cells were subsequently superfused with Na^+ free HEPES, which abolished all Na^+/H^+ Exchanger (NHE) activity, trapping H^+ within the cytosol and initiating an immediate drop in pHi. […]
The intensity ratio data (490/440) were converted to pH values using the high K^+/nigericin calibration technique^40. Intracellular pH recovery rates were calculated from the same initial starting pH to eliminate the potential variation in the individual intracellular buffering power of the cells under the different experimental conditions. […] The recovery rates are expressed as the ΔpH/min, and were calculated over the pH range of 6.5-6.8. […] All data were summarized as means±SE and were analysed by grouping measurements at baseline values.

[5] = molecular target: T2, fundic H+,K+-ATPase (Rattus norvegicus, UniProt P09626); assay: Intracellular pH recovery in isolated rat fundic (F1) glands; assay type: cell-based; settings: for effect on fundic (F1) acid secretion (in words): histamine 100 μM
T2 construct: Glands adjacent to the esophageal junction were hand dissected; from tissue; host or cells: hand-dissected fundic glands of Sprague Dawley rat stomach, next to the esophageal junction
T2 sequence (P09626 whole entry): as the sequence (P09626 whole entry) above
T2 sequence (P18598 whole entry partner): as the sequence (P18598 whole entry partner) above
Method: Male Sprague Dawley rats weighing 200-300 g were housed in climate and humidity controlled, light cycled rooms and fed standard chow with free access to water. Prior to experiments, animals were fasted while allowing free access to water for 18-24 hours to reduce basal acid secretion. Following isoflurane anesthesia the animals were sacrificed, an abdominal incision was made exposing the stomach. After isolating the esophagus and duodenal junctures a total gastrectomy was performed with 1-2 cm of esophagus remaining attached to the gastrectomy. We included the esophageal juncture to have a common landmark for all fundic isolations. While holding the esophagus with forceps approximately 3 mm of fundus was removed with 5 mm of the intact esophagus.
The removed fundic tissue was placed in ice cold HEPES-buffered Ringer-solution (pH adjusted to 7.4 at 4° C.) and transferred to the stage of a dissection microscope. The fundic glands were visualized under the microscope at 50× magnification. Glands adjacent to the esophageal junction were hand dissected. […]
Using the same protocol that we developed for isolated corpus gland perfusion^20a, 21a individual fundic glands were loaded with a […] of the pH sensitive dye (BCECF, (2′7-bis(2-carbocyethal)-5-(and 6)-carboxyflurorescein-acetomethylester; Molecular Probes, OR USA)) for 15 minutes. […] Acid extrusion was monitored in the absence of bicarbonate. […] Intracellular pH recovery rates (H^+, K^+-ATPase activity) were measured in Na^+ free HEPES solutions containing: 1) 100 μM histamine 2) 100 μM pentagastrin. […]
The recovery rates are expressed as the ΔpHi/min, and were calculated over the pH range of 6.5-6.9.
Activation of acid secretion via histamine, acetylcholine or pentagastrin was induced by preincubation of the glands for 15 min before the experiment combined with BCECF (100 μM) loading. All data are summarized as mean±S.E. Significance was determined using the one-way ANOVA test with p<0.05 considered to be statistically significant. […]

[6] = molecular target: T1, H+,K+-ATPase; assay: Intracellular pH recovery in rat corpus glands (fundus/corpus comparison); assay type: cell-based; settings: corpus glands
Method: Molecular Probes, OR USA)) for 15 minutes. […] Measurements were performed in the epifluorescence mode with 60×/0.80 and 40×/0.90 objectives. […] Data points were acquired every 15 s. […] Acid extrusion was monitored in the absence of bicarbonate. […] All data are summarized as mean±S.E. Significance was determined using the one-way ANOVA test with p<0.05 considered to be statistically significant. All chemicals used were obtained from Sigma and Molecular Probes.

[Cl-].[Cl-].[Zn+2] [ZnCl2, zinc chloride]
inhibition of proton extrusion ([1]; 300 μM ZnCl2, compared to the histamine (100 μM) induced rate): 98% | onset of inhibition of histamine induced acid secretion ([1]; ZnCl2 300 μM added to superfusion bath during alkalinization, histamine 100 μM): a few seconds | reversibility of inhibition after removal of ZnCl2 ([1]; ZnCl2 300 μM, histamine 100 μM): increase of the intracellular pH continued; also recorded: returns to normal levels | effect on histamine induced acid secretion (in words) ([1]; rat gastric glands, histamine 100 μM, ZnCl2 25-300 μM): blocked; also recorded: dose dependent manner | luminal pH ([2]; 100 μM histamine and 300 μM ZnCl2, 1 hour): 4.54±0.065 | luminal pH compared with histamine alone (in words) ([2]; 100 μmol histamine and 300 μmol ZnCl2): higher pH | histamine induced proton extrusion rate after oral ZnCl2 ([3]; 0.05 mg/kg/d ZnCl2 in drinking water for 5 days): 0.034±0.0036 ΔpH/min | histamine induced proton extrusion rate after oral ZnCl2 ([3]; 150 mg/kg/d ZnCl2 in drinking water for 5 days): 0.022±0.0045 ΔpH/min | effect on histamine stimulated proton efflux (in words) ([4]; histamine 100 μM, ZnCl2 300 μM): blocked; also recorded: abolished

Cc1cccc(C)c1CNc1cc(C(=O)NCCO)cn2c(C)c(C)nc12 [AZD0865]
effect on fundic (F1) acid secretion (in words) [5]: does not completely inhibit proton extrusion | effect on corpus acid secretion (in words) [6]: effectively inhibits acid secretion

NCCc1c[nH]cn1 [histamine]
recovery rate (proton extrusion) of histamine stimulated parietal cells ([3]; control group with histamine alone, no ZnCl2): 0.051±0.004 ΔpH/min | F1 gland alkalinization rate ([5]; 100 μM secretagogue alone): 0.042±0.007 ΔpHi/min and 0.040±0.0079 ΔpHi/min | effect on fundic (F1) acid secretion (in words) [5]: no effect | proton efflux under histamine stimulation (in words) ([4]; histamine alone): robust proton efflux
